Tested on: HEK293T cells
Details: human

SMILES: COc1ncc(-c2ccc3nc(N)n(-c4ccc(N5CCOCC5)cc4)c3c2)cc1S(=O)(=O)Nc1ccccc1F [A1, 5-(2-amino-1-(4-(4-morpholinyl)phenyl)-1H-benzimidazol-6-yl)-N-(2-fluorophenyl)-2-methoxy-3-pyridinesulfonamide]
- Concentration that killed most of the cells (MTT): ≥ 250 nM

— patent US11766420B2 (priority 2015, dated 2023)
